Consider 1 compound from patent publication US8852654B2 (priority 2011, dated 2014).

The conditions of series [1]: cited from earlier work.
A short description of series [2]: Double blind randomized clinical assay in women with low urinary tract infection treated with nitrofurantoin. It is filed as in vivo, human. From the text: Patients were ambulatory in the Urology Polyclinical of the Clinical Hospital of the University of Chile (HCUCH). Those that fulfilled the inclusion and exclusion criteria signed an informed consent to participate in the study. Patients were distributed randomly in the two following groups:
During the treatment, under medical and nursery checkup registers of adverse reactions, hemogram, biochemical profile, urocultive and determination of plasma antioxidant capacity were made.

Consider `O=C1CN(/N=C/c2ccc([N+](=O)[O-])o2)C(=O)N1` [nitrofurantoin, N-(5-nitro-2-furfuriliden)-1-aminohidantoin], for which, in series [1] (after oral administration), the Absorption entry is “almost completely absorbed”. Besides, in series [1] (oral), the Maximum plasma concentrations entry was “about 1 mg/L”. Further, the Plasma half-life in series [1] (oral, prolonged in renal insufficiency) is 20 to 30 min. Also, in series [2] (human, in vivo), the “Biochemical profile values compared with reference values” is given as “not statistically different from reference values” and the “Hemogram values compared with reference values” is given as “not statistically different from reference values”. In addition, the “Patients passed away because of the gastrointestinal adverse reactions” value in series [2] (received only nitrofurantoin, 100 mg every 12 hours, 15 patients per group) was determined as 2 patients.
